The test system of experiment [1] is HCV RLuc subgenomic replicon (genotype 1b) in Huh-7.5 cells. Put plainly: HCV subgenomic replicon assay (Renilla luciferase). The class given is cell-based, hepatitis C virus. From the text: An HCV Renilla luciferase reporter construct (HCV RLuc; Huang, et al. (2006) Hepatology 43:81-90) was used to measure the effect of each compound on cellular HCV RNA levels. In HCV RLuc, the HCV internal ribosome entry site (IRES) drives the translation of the neomycin and Renilla luciferase genes while the HCV nonstructural proteins (NS3 to NS5B) are translated from the Encephalomyocarditis virus IRES (Huang, et al. (2006) supra). The plasmid DNA was cleaved with ScaI, purified by phenol/chloroform extraction followed by ethanol precipitation, and used as template for RNA transcription using […] T7 RNA transcription kit (Ambion, Austin, Tex.). The RNA transcripts were treated with 2 U DNase I (Ambion) at 37° C. for 30 minutes, purified by acid phenol/chloroform extraction, followed by isopropanol precipitation, and suspended in diethylpyrocarbonate-treated water. RNA concentration was determined by spectrophotometry by measuring the A260. RNA integrity and size was checked on 1% agarose gel. Transcribed RNA was stored in aliquots at −80° C. until needed.
Huh-7.5 cells were transfected with HCV RNA by electroporation. Briefly, subconfluent Huh7.5 cells were trypsinized, suspended in complete growth medium, and centrifuged at 1,000×g for 5 minutes at 4° C. The cell pellets were then washed twice with ice-cold phosphate-buffered saline (PBS) and suspended at 1.75×10^7 cells/mL in ice-cold PBS. Replicon RNA (5 μg) was mixed with 0.4 mL of cell suspension and transferred to 2 mm gap width electroporation cuvette (EPPENDORF AG, Germany) and pulsed 5 times for 99 μsec at 820 V over 1.1 sec intervals using the ECM 830 electroporator instrument (BTX Harvard Apparatus, Holliston, Mass.). After a 5 minute recovery period at room temperature, cells were transferred to 10 ml complete growth medium, and seeded into 10 cm diameter cell culture dishes. Twenty-four hours after transfection, the medium was replaced with fresh complete DMEM supplemented with 1 mg/ml geneticin (Invitrogen) and the medium was replaced every three to four days with fresh medium containing 1 mg/mL geneticin. Geneticin-resistant colonies were selected for a period of two weeks and expanded in the presence of 250 μg/mL geneticin.
HCV RLuc replicon cells were seeded at a density of 10×10^3 cells per well in 96-well plates and incubated for 4-5 hours to allow the cells to attach to the plate. The compounds dissolved in dimethyl sulfoxide (DMSO) were added at a final concentration of 10 μM (DMSO solvent final concentration was 0.5%) and the cells were incubated for 72 hours at 37° C. under 5% CO2 atmosphere. The effects of compounds on HCV replication were then assessed by measuring the Renilla luciferase activity in compound-treated versus DMSO-treated cells. At the end of the incubation period, the medium was aspirated and the cells were washed with 1×PBS. The Renilla luciferase reporter gene assay was performed using the Renilla luciferase assay kit (PROMEGA, Madison, Wis.) according to the manufacturer's instructions. Briefly, the cells were lysed by addition of 50 μL of 1× Renilla luciferase lysis buffer followed by two cycles of freeze/thaw. The luciferase activity content of the lysate was measured with a FLUOSTAR Omega microplate reader instrument (BMG Labtech, Germany) after injecting 50 μL of luciferase substrate and reading for 5 seconds.
To determine if the above identified compounds might be useful as HCV antiviral agents, they were added to cells harboring HCV subgenomic RNA replicon. The HCV replicon chosen was derived from the same HCV strain (genotype 1b) as the NS3 protein used for screening and enzyme assays. […] 75:4614-4624; Blight, et al. (2002) J. Virol. 76:13001-13014). […]

The next experiment addresses T1, NS3h_2a(JFH1) (Hepatitis C virus genotype 2a, UniProt Q99IB8).
T1 construct: truncated C-terminally His-tagged NS3 proteins lacking the N-terminal protease, called NS3h; His-tag (C); made in house
Put plainly: MBHA, DNA substrate, genotype 2a helicase. The class given is biochemical, hepatitis C virus genotype 2a(JFH1). The procedure: All oligonucleotides were purchased from Integrated DNA Technologies (IDT, Coralville, Iowa). Primuline derivatives were synthesized and purified as described herein. Three different NS3 proteins were used in this study. Two were truncated C-terminally His-tagged NS3 proteins lacking the N-terminal protease, called NS3h, the third was a full-length NS3 with the portion of NS4A needed for protease activation fused to its N-terminus, called scNS4A-NS3 (Howe, et al. (1999) Protein Sci. 8:1332-41), and the fourth was a 23 kDa scNS4A-NS3 protease fragment lacking the helicase domains, called scNS4A-NS3p (Protein One, Rockville, Md.). NS3h was expressed from two different HCV strains. NS3h_1b(con1) was from the con1 strain of genotype 1b (GENBANK accession AB114136), and NS3h_2a(JFH1) was from the JFH1 strain of HCV genotype 2a (GENBANK accession AJ238799). […] His-tagged recombinant NS3h_1b(con1), NS3h_2a(JFH1), and scNS4A-NS3 (also from genotype 1b(con1)) were expressed, and purified as previously described (Frick, et al. (2010) supra; Lam, et al. (2003) J. Virol. 77:3950-3961). The scNS4A-NS3p (genotype 1b) was from Protein One. A plasmid expressing NS3h from dengue virus strain 2 (NS3h_DV2)(GENBANK accession 2BMF) is known in the art (Xu, et al. (2005) J. Virol. 79:10278-10288), and used to express and purify NS3h_DV2 (Belon, et al. (2010) supra)
Compounds that specifically target less conserved regions of a HCV protein are often not potent inhibitors of the same protein derived from other genotypes, and they might be susceptible to rapid evolution of related viruses. As described herein, primuline derivatives can inhibit HCV helicase isolated from the genotype 1b(con1) strain. Therefore to further analyze specificity, the subset of primuline analogs was tested on the helicase isolated from the genotype 2a(JFH1) strain. The two recombinant proteins differ at 83 of their 480 amino acids. The JHF1 strain is also of interest because it serves as the backbone for HCV strains capable of replicating in cell culture (Wakita, et al. (2005) Nat. Med. 11:791-796). The molecular beacon-based helicase assay (MBHA) (Belon & Frick (2008) supra) was used to measure the ability of each compound to inhibit DNA unwinding catalyzed by NS3h isolated from genotype 2a(JFH1) (NS3h_2a(JFH1)). […] Selected compounds were also tested for the ability to inhibit helicase reactions catalyzed by full-length NS3 and a single chain NS4A-NS3 protein (scNS4A-NS3) described below and used for protease assays.

The mark [2] stands for this setting: Hepatitis C virus, Huh7.5, 10 μM compound, triplicate, average ± SD, read-out: HCV replication (% Inh.).
[3] abbreviates: Hepatitis C virus, Huh7.5, 10 μM, read-out: Replicon (% Inhibition @ 10 μM).
Setting [4] is: genotype 2a (JFH1), read-out: Target Potency MBHA (IC50 avg., μM) 2a (JFH1) (converted).
The mark [5] stands for this setting: DNA-based MBHA, genotype 2a(JFH1), read-out: DNA Helicase NS3h_2a IC50 (μM) ± SD.

Read-outs that look alike come from different tables or passages of the source.

T1 sequence (Q99IB8 1196-1661): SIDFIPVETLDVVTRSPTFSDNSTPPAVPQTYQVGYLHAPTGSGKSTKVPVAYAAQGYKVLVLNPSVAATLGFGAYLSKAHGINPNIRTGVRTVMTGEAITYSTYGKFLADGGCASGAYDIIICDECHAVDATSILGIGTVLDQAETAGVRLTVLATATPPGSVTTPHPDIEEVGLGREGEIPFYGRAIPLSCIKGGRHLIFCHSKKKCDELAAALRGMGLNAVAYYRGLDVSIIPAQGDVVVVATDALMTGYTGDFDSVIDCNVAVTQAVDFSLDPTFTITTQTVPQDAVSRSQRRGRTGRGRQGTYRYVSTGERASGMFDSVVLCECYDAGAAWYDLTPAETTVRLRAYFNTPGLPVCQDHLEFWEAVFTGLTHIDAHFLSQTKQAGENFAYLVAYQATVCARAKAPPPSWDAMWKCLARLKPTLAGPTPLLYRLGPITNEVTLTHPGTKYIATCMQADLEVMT

Regarding `Cc1ccc2nc(-c3ccc4nc(-c5ccc(NC(=O)c6cccc(C(F)(F)F)c6F)cc5)sc4c3)sc2c1S(=O)(=O)O` [Compound 22, 2′-(4-(2-fluoro-3-(trifluoromethyl)benzamido)phenyl)-6-methyl-[2,6′-bibenzo[d]thiazole]-7-sulfonic acid], the inhibition at 10 µM in experiment [1] (setting [2]) and in experiment [1] (setting [3]) was 48 ± 18% in each case. Further, on NS3h_2a(JFH1) (setting [4]), the IC50 was 8.1 ± 2 µM.
Consider `Cc1ccc2nc(-c3ccc4nc(-c5ccc(NC(=O)c6ccc(C(F)(F)F)c(F)c6)cc5)sc4c3)sc2c1S(=O)(=O)O` [Compound 23, 2′-(4-(3-fluoro-4-(trifluoromethyl)benzamido)phenyl)-6-methyl-[2,6′-bibenzo[d]thiazole]-7-sulfonic acid], for which the inhibition at 10 µM in experiment [1] (setting [2]) and in experiment [1] (setting [3]) was 48 ± 4% in each case. The IC50 on NS3h_2a(JFH1) (setting [4]) is 13 ± 2 µM.
In the case of `Cc1ccc2nc(-c3ccc4nc(-c5ccc(NC(=O)c6cc(C(F)(F)F)cc(C(F)(F)F)c6)cc5)sc4c3)sc2c1S(=O)(=O)O` [Compound 24, 2′-(4-(3,5-bis(trifluoromethyl)benzamido)phenyl)-6-methyl-[2,6′-bibenzo[d]thiazole]-7-sulfonic acid], the inhibition at 10 µM in experiment [1] (setting [2]) and in experiment [1] (setting [3]) was 60 ± 4% throughout. The EC50 in experiment [1] (Hepatitis C virus, Huh7.5, HCV Rluc subgenomic replicon cells, read-out: concentration needed to reduce replicon-encoded luciferase by 50%) came out at 5 ± 2 µM. Further, in experiment [1] (Rluc subgenomic HCV replicon cells), the “combination of compound 24 and telaprevir on replicon expression” value was “No synergy”. In addition, the “loss of HCV replicon Rluc activity” value in experiment [1] (elevated concentrations (>10 μM)) is on record as “more than 90%”. For the same compound, the IC50 on NS3h_2a(JFH1) (setting [5]) was 29 ± 5.2 µM; at NS3h_2a(JFH1) (setting [4]), 28.7 ± 5 µM.
Consider `Cc1ccc2nc(-c3ccc4nc(-c5ccc(NC(=O)c6cc(C(F)(F)F)ccc6F)cc5)sc4c3)sc2c1S(=O)(=O)O` [Compound 25, 2′-(4-(2-fluoro-5-(trifluoromethyl)benzamido)phenyl)-6-methyl-[2,6′-bibenzo[d]thiazole]-7-sulfonic acid], for which the inhibition at 10 µM in experiment [1] (setting [2]) and in experiment [1] (setting [3]) was 39 ± 4% each time. Besides, the IC50 at NS3h_2a(JFH1) (setting [5]) was 7 ± 0.9 µM; on NS3h_2a(JFH1) (setting [4]), 6.7 ± 1 µM.
`Cc1ccc2nc(-c3ccc4nc(-c5ccc(NC(=O)c6cc(F)ccc6C(F)(F)F)cc5)sc4c3)sc2c1S(=O)(=O)O` [Compound 26, 2′-(4-(5-fluoro-2-(trifluoromethyl)benzamido)phenyl)-6-methyl-[2,6′-bibenzo[d]thiazole]-7-sulfonic acid]: the inhibition at 10 µM in experiment [1] (setting [2]) and in experiment [1] (setting [3]) was 61 ± 14% in each case. The IC50 on NS3h_2a(JFH1) (setting [4]) was 16.6 ± 2 µM.
Consider `Cc1ccc2nc(-c3ccc4nc(-c5ccc(NC(=O)c6cc(F)cc(C(F)(F)F)c6)cc5)sc4c3)sc2c1S(=O)(=O)O` [Compound 27, 2′-(4-(3-fluoro-5-(trifluoromethyl)benzamido)phenyl)-6-methyl-[2,6′-bibenzo[d]thiazole]-7-sulfonic acid], for which the inhibition at 10 µM in experiment [1] (setting [2]) and in experiment [1] (setting [3]) was 51 ± 9% throughout. Moreover, on NS3h_2a(JFH1) (setting [4]), the 50% inhibitory concentration (IC50) is 15.8 ± 2.2 µM.
As for `Cc1ccc(NC(=O)Nc2ccc(-c3nc4ccc(-c5nc6ccc(C)c(S(=O)(=O)O)c6s5)cc4s3)cc2)cc1` [Compound 28, 6-methyl-2′-(4-(3-(p-tolyl)ureido)phenyl)-[2,6′-bibenzo[d]thiazole]-7-sulfonic acid], the inhibition at 10 µM in experiment [1] (setting [2]) and in experiment [1] (setting [3]) was 43 ± 9% each time. The IC50 on NS3h_2a(JFH1) (setting [4]) is 4 µM.
For the compound `COc1ccc(S(=O)(=O)Nc2ccc(-c3nc4ccc(-c5nc6ccc(C)c(S(=O)(=O)O)c6s5)cc4s3)cc2)cc1` [Compound 29, 2′-(4-(4-methoxyphenylsulfonamido)phenyl)-6-methyl-[2,6′-bibenzo[d]thiazole]-7-sulfonic acid], the inhibition at 10 µM in experiment [1] (setting [2]) and in experiment [1] (setting [3]) was 44 ± 5% each time. Also, on NS3h_2a(JFH1) (setting [4]), the IC50 was 13.4 µM.
As to `CC(=O)Nc1ccc(-c2nc3ccc(-c4nc5ccc(C)c(S(=O)(=O)O)c5s4)cc3s2)cc1` [Compound 30, 2′-(4-acetamidophenyl)-6-methyl-[2,6′-bibenzo[d]thiazole]-7-sulfonic acid], the values for the inhibition at 10 µM in experiment [1] (setting [2]) and in experiment [1] (setting [3]) were 1 ± 12% and 26 ± 21%, respectively. Moreover, the IC50 at NS3h_2a(JFH1) (setting [4]) was above 100 µM.
Taken in the same sequence, the figures for `Cc1ccc2nc(-c3ccc4nc(-c5ccc(NC(=O)c6cccnc6)cc5)sc4c3)sc2c1S(=O)(=O)O` [Compound 31, 6-methyl-2′-(4-(nicotinamido)phenyl)-[2,6′-bibenzo[d]thiazole]-7-sulfonic acid] were 51 ± 22%, 51 ± 22% and 48 µM.
On the same counts, the results for `Cc1ccc2nc(-c3ccc4nc(-c5ccc(NC(=O)c6ccncc6)cc5)sc4c3)sc2c1S(=O)(=O)O` [Compound 32, 2′-(4-(isonicotinamido)phenyl)-6-methyl-[2,6′-bibenzo[d]thiazole]-7-sulfonic acid] are 59 ± 13%, 59 ± 13% and 52 ± 25 µM.
For the compound `Cc1ccc2nc(-c3ccc4nc(-c5ccc(NC(=O)c6ccc7ccccc7c6)cc5)sc4c3)sc2c1S(=O)(=O)O` [Compound 33, 2′-(4-(2-naphthamido)phenyl)-6-methyl-[2,6′-bibenzo[d]thiazole]-7-sulfonic acid], the results for the inhibition at 10 µM in experiment [1] (setting [2]) and in experiment [1] (setting [3]) were 61 ± 10% and 21 ± 33%, respectively. Also, the IC50 at NS3h_2a(JFH1) (setting [5]) was 2 ± 0.6 µM; on NS3h_2a(JFH1) (setting [4]) it was 4.4 µM.

(Values after patent US9464064B2, “HCV helicase inhibitors and methods of use thereof” (University of Kansas, priority 2011, dated 2016).)
